Measurements: ChEMBL document CHEMBL1122718, “Benzylamines: synthesis and evaluation of antimycobacterial properties” (1984)

Tested on: Mycolicibacterium smegmatis
Experiment: Minimum inhibitory concentration (MIC) of compound against Mycobacterium smegmatis ATCC 607
Assay type: functional

SMILES	MIC [µg/mL]
CCCCNCc1cc(F)cc(F)c1.Cl	32

Tested on: Mycobacterium lufu
Experiment: Minimum inhibitory concentration (MIC) of compound against Mycobacterium lufu L 209
Assay type: functional

SMILES	MIC [µg/mL]
CCCCNCc1cc(F)cc(F)c1.Cl	8

Tested on: Mycobacterium tuberculosis
Experiment: Minimum inhibitory concentration (MIC) of compound against Mycobacterium tuberculosis H 37 Rv
Assay type: functional

SMILES	MIC [µg/mL]
CCCCNCc1cc(F)cc(F)c1.Cl	4

Tested on: Mycobacterium tuberculosis
Experiment: Compound was evaluated for the minimum inhibitory concentration (MIC) against Mycobacterium tuberculosis H 37 Rv
Assay type: functional

SMILES	MIC [µg/mL]
CCCCNCc1cccc(F)c1.Cl	30

Tested on: Mycobacterium marinum
Experiment: Minimum inhibitory concentration (MIC) of compound against Mycobacterium marinum SN 1254
Assay type: functional

SMILES	MIC [µg/mL]
CCCCNCc1cc(F)cc(F)c1.Cl	6

Tested on: Mycobacterium avium
Experiment: Minimum inhibitory concentration (MIC) of compound against Mycobacterium avium SN 304
Assay type: functional

SMILES	MIC [µg/mL]
CCCCNCc1cc(F)cc(F)c1.Cl	3

Tested on: Mycobacterium tuberculosis
Experiment: Minimum inhibitory concentration (MIC) against Mycobacterium tuberculosis H 37 Ra
Assay type: functional

SMILES	MIC [µg/mL]
CCCCNCc1cccc(Cl)c1.Cl	64
CNCc1ccc(Cl)c(C(F)(F)F)c1.Cl	> 256
Cl.NCc1ccc(Cl)c(C(F)(F)F)c1	> 256
CCCNCc1cccc(Br)c1.Cl	51.2
CCCCNCc1ccc(Cl)c(Cl)c1.Cl	> 256
CCCCNCc1ccccc1Cl.Cl	> 256
CCCNCc1ccc(Cl)c(Cl)c1.Cl	> 256
CCNCc1ccc(Cl)c(Cl)c1.Cl	> 256
CNCc1cccc(I)c1.Cl	154
CNCc1cc(F)cc(Cl)c1.Cl	19.2
CCCNCc1ccc(Cl)cc1Cl.Cl	> 256
CC(C)NCc1cccc(Cl)c1.Cl	> 256
CNCc1ccc(Cl)c(Cl)c1.Cl	> 256
CNCc1cccc(F)c1.Cl	19.2
Cl.NCc1cccc(C(F)(F)F)c1	> 256
CCCNCc1cc(Cl)cc([N+](=O)[O-])c1.Cl	102
Cl.NCc1cc(F)cc(Cl)c1	32
CCNCc1ccc(OC)cc1.Cl	> 256
CNCc1ccc(OC)cc1.Cl	> 256
CC(C)NCc1cccc(C(F)(F)F)c1.Cl	> 256
CCNCc1ccc(Cl)cc1Cl.Cl	> 256
CCNCc1cccc(F)c1.Cl	51.2
CCNCc1cc(Cl)ccc1Cl.Cl	> 256
CCCNCc1cccc([N+](=O)[O-])c1.Cl	> 256

SMILES	MIC [µg/mL]
CNCc1cc(Cl)ccc1Cl.Cl	> 256
CNCc1cc(F)cc(F)c1.Cl	32
CCNCc1ccc(Cl)c(C(F)(F)F)c1.Cl	> 256
CCCCNCc1cccc(C(F)(F)F)c1.Cl	> 256
CCCCNCc1cc(Cl)ccc1Cl.Cl	> 256
CCCCNCc1c(Cl)cccc1Cl.Cl	> 256
CCNCc1cccc([N+](=O)[O-])c1.Cl	> 256
Cl.NCc1cccc(Br)c1	32
CC(C)NCc1cccc(F)c1.Cl	> 256
Cl.NCc1cccc(I)c1	179
CCCCCNCc1cccc(Cl)c1.Cl	51.2
CCCCCCNCc1ccccc1.Cl	> 256
CCCCNCc1ccccc1.Cl	51.2
CCNCc1cccc(C(F)(F)F)c1.Cl	> 256
CNCc1cccc(C(F)(F)F)c1.Cl	> 256
CCNCc1ccccc1Br.Cl	> 256
CCCNCc1ccc(C(F)(F)F)cc1.Cl	> 256
CCCCCNCc1cc(Cl)cc(Cl)c1.Cl	128
CCCNCc1ccc(Cl)c(C(F)(F)F)c1.Cl	> 256
CCCNCc1cccc(F)c1.Cl	25.6
CNCc1ccc(C(F)(F)F)cc1.Cl	> 256
CCCNCc1ccc(OC)cc1.Cl	> 256
Cl.NCc1cc(F)cc(F)c1	57.6
CNCc1ccc(Cl)cc1Cl.Cl	> 256

SMILES	MIC [µg/mL]
Cl.NCc1ccc(Cl)cc1Cl	> 256
Cl.NCc1cc(Cl)ccc1Cl	76.8
CCCCNCc1cccc(Br)c1.Cl	38.4
CCCCCCCNCc1ccccc1.Cl	> 256
CCNCc1cc(Cl)cc(Cl)c1.Cl	17.9
CCCCNCc1ccccc1Br.Cl	> 256
Cl.N#Cc1cccc(CN)c1	128
CCCCNCc1cc(F)cc(Cl)c1.Cl	19.2
CCCCNCc1cccc(I)c1.Cl	205
CC(C)NCc1cccc(C#N)c1.Cl	> 256
CNCc1ccc(Cl)cc1.Cl	> 256
CCCCCNCc1cccc(C#N)c1.Cl	76.8
CNCc1ccccc1.Cl	102
CCCNCc1cc(Cl)cc(Cl)c1.Cl	20.4
CCCCCNCc1cccc([N+](=O)[O-])c1.Cl	> 256
Cl.NCc1ccc(C(F)(F)F)cc1	> 256
CCCNCc1cccc(C(F)(F)F)c1.Cl	> 256
Cl.NCc1cccc([N+](=O)[O-])c1	179
CNCc1cccc(C#N)c1.Cl	51.2
CCNCc1c(Cl)cccc1Cl.Cl	> 256
CCCCNCc1cccc(F)c1.Cl	25.6
CC(C)NCc1cccc([N+](=O)[O-])c1.Cl	> 256
CNCc1c(Cl)cccc1Cl.Cl	> 256
CCCCNCc1ccc(Br)cc1.Cl	> 256

SMILES	MIC [µg/mL]
CCCNCc1cccc(C#N)c1.Cl	76.8
CCCCNCc1cc(Cl)cc([N+](=O)[O-])c1.Cl	205
CCNCc1cccc(I)c1.Cl	> 256
CCNCc1ccccc1.Cl	205
CCCNCc1cc(F)cc(Cl)c1.Cl	25.6
Cl.NCc1ccccc1	76.8
CNCc1ccccc1Cl.Cl	> 256
CCCNCc1cccc(I)c1.Cl	256
CCCCNCc1ccc(Cl)cc1.Cl	> 256
CNCc1ccc(Br)cc1.Cl	> 256
CCCCNCc1ccc(C(F)(F)F)cc1.Cl	> 256
CCCCNCc1cccc([N+](=O)[O-])c1.Cl	> 256
CCCNCc1ccccc1.Cl	51.2
CCCCCNCc1cccc(F)c1.Cl	51.2
COc1ccc(CN)cc1.Cl	> 256
CCCNCc1c(Cl)cccc1Cl.Cl	> 256
CCNCc1cccc(C#N)c1.Cl	102
Cl.NCc1c(Cl)cccc1Cl	> 256
CCCCCNCc1ccccc1.Cl	154
CNCc1cc(Cl)cc([N+](=O)[O-])c1.Cl	128
CCCCNCc1ccc(Cl)c(C(F)(F)F)c1.Cl	> 256
Cl.NCc1ccc(Cl)c(Cl)c1	> 256
Cl.NCc1cc(Cl)cc(Cl)c1	20.4
CCCNCc1cc(Cl)ccc1Cl.Cl	> 256

SMILES	MIC [µg/mL]
CCNCc1cc(Cl)cc([N+](=O)[O-])c1.Cl	102
CCCNCc1cc(F)cc(F)c1.Cl	19.2
CCCCNCc1cccc(C#N)c1.Cl	51.2
Cl.NCc1cccc(F)c1	51.2
CCCCNCc1cc(F)cc(F)c1.Cl	6.4
CCNCc1ccc(C(F)(F)F)cc1.Cl	> 256
CCCCCNCc1cc(F)cc(F)c1.Cl	32
CNCc1cccc(Br)c1.Cl	19.2
CCNCc1cc(F)cc(Cl)c1.Cl	32
CCNCc1cc(F)cc(F)c1.Cl	44.8
CCCNCc1cccc(Cl)c1.Cl	17.9
CCCCCCCNCc1cc(Cl)cc(Cl)c1.Cl	154
CCNCc1cccc(Br)c1.Cl	64
CCCCCNCc1cccc(C(F)(F)F)c1.Cl	> 256
CNCc1cccc([N+](=O)[O-])c1.Cl	256
Cl.NCc1cccc(Cl)c1	17.9
CCCCNCc1cc(Cl)cc(Cl)c1.Cl	64
CCCCNCc1ccc(Cl)cc1Cl.Cl	> 256
CCNCc1cccc(Cl)c1.Cl	25.6
CCCCCCCCNCc1ccccc1.Cl [BENZYL(OCTYL)AMINE HYDROCHLORIDE]	> 256
